In article PMC6821791, “Phase I Trial of Pyragrel, a Novel Thromboxane Synthetase Inhibitor, to Evaluate the Safety, Tolerability, and Pharmacokinetics in Healthy Volunteers” (Frontiers in Pharmacology, 2019):

What was measured:
Format in all cases: in vivo, human
[1] = Part II saline-volume-changed study, plasma pharmacokinetics; settings: single-dose infusion of 240 mg pyragrel diluted in 250 ml saline, n=4
Description: (§1) Pyragrel administration regimens are as follows: In the single-escalating-dose study (Part I), a total of 52 subjects are enrolled to receive one of three treatments (pyragrel, ozagrel, or placebo, diluted in 500 Ml normal saline) as a 3-h i.v. infusion. Six dose levels of pyragrel (30, 60,120, 180, 240, 300 mg) were intravenously infused to healthy subjects. Of the 12 subjects each at the first three dose groups (30, 60, and 120 mg), 8 received pyragrel, 2 received ozagrel (80 mg), and 2 received placebo. Eight subjects were assigned as 4/2/2 for pyragrel, ozagrel, and placebo at the 180 mg level. Only four subjects were enrolled at the 240- and 300-mg group each; all received pyragrel. […] In the saline-volume-changed study (Part II), the safety and pharmacokinetics of pyragrel were assessed by decreasing the volume of dilution saline. Four subjects received a single 3 h infusion of pyragrel 240 mg diluted in 250 ml saline instead of the 500 ml used in Part I. Blood samples were collected at multiple time points before and after the initiation of the infusion in Part I and Part II; 15 blood samples were predetermined as follows: before drug administration (time 0), 0.5, 1, 2, 3 (4 samples collected during infusion), 3.25, 3.5, 4, 5, 7, 9, 11, 15, 24, and 48 h (10 samples collected post infusion) after the initiation of the infusion. In the multiple-dose study (Part III), 12 subjects received a single 3 h infusion of 180 mg pyragrel (diluted in 250 ml saline) on Day 1 and Day 6 and twice 3 h infusion of 180 mg pyragrel from Day 2 to 5; 14 blood samples were collected on Day 1 and Day 6 before drug administration (0 h), 0.5, 1, 2, 3, 3.25, 3.5, 4, 5, 7, 9, 11, 15, 24 h after the initiation of the infusion; moreover, 5 ml cubital vein blood was collected each time right before pyragrel infusion on Day 2 to Day 5. In the 3×3 crossover study (Part IV), 12 subjects were randomized to receive each of the three dosing groups (60, 120, or 240 mg) of pyragrel (diluted with 250 ml saline, 3 h infusion) per period, with a 7-day washout period between doses. Sixteen blood samples were collected as follows: before drug administration (0 h), 0.17, 0.35, 0.5, 1, 2, 3, 3.25, 3.5, 4, 5, 7, 9, 11, 15, and 24 h after the initiation of the infusion at each period. In the prolonged infusion study (Part V), four subjects received continuous 24 h infusion of pyragrel 360 mg (diluted in 600 ml saline); 19 blood samples were collected as follows: before drug administration (0 h), 0.25, 0.5, 1, 2, 4, 8, 12, 16, 20 (nine samples collected during administration), 24.25, 24.5, 25, 26, 28, 30, 32, 36, and 48 h after the initiation of the infusion (details shown in Figure 1 ). In all five cohorts, 5 ml of cubital vein blood was collected with a sodium heparin anticoagulant tube and centrifuged at 3000 r·min^-1. Each plasma sample was divided into two aliquots and stored at −20°C until further bioanalysis. […] Briefly, 10 µl of the extract drug from […] was injected onto a Zorbax EcLipse XDB C18 column (2.1 mm × 150 mm, 5 μm) (Agilent, USA) using isocratic elution with a mobile phase composed of methanol, water, and formic acid (65:35:0.1, v/v/v). Determination of the analytes was achieved by tandem-mass spectrometry with positive electrospray ionization.
(§2) Pharmacokinetic parameters were calculated using the noncompartmental model (NCA module), WinNonlin 6.1 (Pharsight Corporation, Mountain View, CA, USA). Statistical analysis was performed with SPSS 18. The actual dosing and sampling times were utilized in the analysis. Pharmacokinetic parameters were summarized by dose regimens using descriptive statistics, including n, mean, and the coefficient of variation (CV). For Tmax, only n, min, median, and max were reported.

[2] = Part IV 3×3 crossover study, plasma pharmacokinetics
Description: as §1, §2
In Part IV, a multivariate ANOVA model containing subjects, treatments (60, 120, or 240 mg), periods, and gender was used to analyze log-transformed Cmax and AUC. Tmax was analyzed using various related Friedman nonparametric tests.

[3] = Part V prolonged 24 h infusion study, plasma pharmacokinetics; settings: for AUCINF / AUClast / Cl / Cmax / Tmax / Vz / t1/2: continuous i.v. infusion of pyragrel 360 mg within 24 h, plasma, n=4, mean ± SD
Description: as §1, §2

[4] = Part IV urinary excretion of pyragrel and four metabolites; settings: for Cumulative urinary drug recovery (normalized to pyragrel) within 24 h: n=12, Mean ± SD; for Total cumulative urine excreted amounts over 24 h: 12 subjects; for Accumulative urinary excretion rate: over 24 h
Description: Urine samples were collected after the initiation of pyragrel infusion as follows in Part IV: 0–3 (3 h infusion period), 3–7, 7–11, 11–15, and 15–24 h after pyragrel administration during each period. […] Production of 11-dehydro-thrombxane B2 (11-D-HTXB2) in urine sample was detected by ELISA method.

[5] = metabolite in plasma after pyragrel 60 mg, n=12
[6] = metabolite in plasma after pyragrel 120 mg, n=12
[7] = metabolite in plasma after pyragrel 240 mg, n=12
[8] = pyragrel 60 mg, 3 h infusion, plasma, n=12, mean ± SD
[9] = pyragrel 120 mg, 3 h infusion, plasma, n=12, mean ± SD
[10] = pyragrel 240 mg, 3 h infusion, plasma, n=12, mean ± SD
[11] = single 3 h infusion of pyragrel 60 mg
[12] = single 3 h infusion of pyragrel 240 mg

For `COc1cc(CCC(=O)O)ccc1OCc1nc(C)c(C)nc1C` [BBS], the AUCINF [1] was 10315.00 ± 5472.87 ng·h/mL, the AUClast [1] was 10085.90 ± 5357.26 ng·h/mL and the Cl [1] was 36.06 ± 33.86 L/h. It also gave a Cmax [1] of 2066.22 ± 977.65 ng/mL, an MRTINF [1] of 4.13 ± 0.70 h and an MRTlast [1] of 3.50 ± 0.74 h. It also gave a Tmax [1] of 3.19 ± 0.24 h, a Vz [1] of 372.66 ± 424.67 L and a t1/2 [1] of 6.31 ± 1.38 h. It also gave a λz [1] of 0.11 ± 0.03 h⁻¹, an AUCINF [2, 5] of 1882.93 ± 534.37 µg·h/L and an AUClast [2, 5] of 1821.9 ± 496.75 µg·h/L. It also gave a Cl [2, 5] of 34.77 ± 11.33 L/h, a Cmax [2, 5] of 373.16 ± 101.22 ng/mL and a Tmax [2, 5] of 3.29 ± 0.18 h. For the same compound, the Vz [2, 5] was 261.4 ± 115.98 L, the t1/2 [2, 5] was 5.12 ± 1.17 h and the AUCINF [2, 6] was 4036.27 ± 1186.62 µg·h/L. It also gave an AUClast [2, 6] of 3969.83 ± 1184.3 µg·h/L, a Cl [2, 6] of 32.54 ± 10.86 L/h and a Cmax [2, 6] of 837.84 ± 228.5 ng/mL. For the same compound, the Tmax [2, 6] was 3.27 ± 0.17 h, the Vz [2, 6] was 250.94 ± 149.96 L and the t1/2 [2, 6] was 5.08 ± 1.38 h. It also gave an AUCINF [2, 7] of 9572.13 ± 3748.80 µg·h/L, an AUClast [2, 7] of 9440.71 ± 3717.86 µg·h/L and a Cl [2, 7] of 30.04 ± 16.36 L/h. For the same compound, the Cmax [2, 7] was 2041.56 ± 684.12 ng/mL, the Tmax [2, 7] was 3.25 ± 0.18 h and the Vz [2, 7] was 212.93 ± 126.27 L. For the same compound, the AUCINF [3] was 11,533 ± 3,946 h*µg·L^-1, the AUClast [3] was 11,500 ± 3,952 h*µg·L^-1 and the Cl [3] was 34.11 ± 11.36 L/h. The Cmax [3] was 566.1 ± 195.0 ng/mL, the Tmax [3] was 18.06 ± 4.13 h and the Vz [3] was 234.4 ± 89.53 L. For the same compound, the t1/2 [3] was 4.74 ± 0.65 h, the “Cumulative urinary drug recovery (normalized to pyragrel) within 24 h” value ([4]; single dose of pyragrel 60 mg) was 3.90 ± 2.11% and the “Cumulative urinary drug recovery (normalized to pyragrel) within 24 h” value ([4]; single dose of pyragrel 120 mg) was 1.93 ± 0.85%. For the same compound, the “Cumulative urinary drug recovery (normalized to pyragrel) within 24 h” value ([4]; single dose of pyragrel 240 mg) was 2.75 ± 0.97%.
`COc1cc(C=CC(=O)[O-])ccc1OCc1nc(C)c(C)nc1C.[Na+]` [Pyragrel, sodium pyragrel] gave an AUCINF [1] of 9638.78 ± 1487.08 ng·h/mL, an AUClast [1] of 9600.11 ± 1446.10 ng·h/mL and a Cl [1] of 25.38 ± 4.18 L/h. For the same compound, the Cmax [1] was 3360.73 ± 622.63 ng/mL, the MRTINF [1] was 1.02 ± 0.33 h and the MRTlast [1] was 0.90 ± 0.16 h. For the same compound, the Tmax [1] was 3.00 ± 0.00 h, the Vz [1] was 221.12 ± 75.68 L and the t1/2 [1] was 6.19 ± 2.63 h. The λz [1] was 0.13 ± 0.04 h⁻¹, the AUCINF [2, 8] was 2,003.8 ± 318.7 h*µg·L^-1 and the AUClast [2, 8] was 1,990.8 ± 317.9 h*µg·L^-1. For the same compound, the Cl [2, 8] was 30.65 ± 4.91 L/h, the Cmax [2, 8] was 641.2 ± 107.8 ng/mL and the Tmax [2, 8] was 2.75 ± 0.45 h. For the same compound, the Vz [2, 8] was 184.5 ± 80.37 L, the t1/2 [2, 8] was 4.28 ± 1.84 h and the AUCINF [2, 9] was 4,325.2 ± 541.5 h*µg·L^-1. The AUClast [2, 9] was 4,317.4 ± 541.1 h*µg·L^-1, the Cl [2, 9] was 28.18 ± 3.83 L/h and the Cmax [2, 9] was 1505.6 ± 178.7 ng/mL. For the same compound, the Tmax [2, 9] was 2.58 ± 0.51 h, the Vz [2, 9] was 197.6 ± 77.76 L and the t1/2 [2, 9] was 4.82 ± 1.63 h. The AUCINF [2, 10] was 9,292.8 ± 1,468.0 h*µg·L^-1, the AUClast [2, 10] was 9,279.1 ± 1,466.3 h*µg·L^-1 and the Cl [2, 10] was 26.45 ± 4.34 L/h. The Cmax [2, 10] was 3165.7 ± 426.4 ng/mL, the Tmax [2, 10] was 2.92 ± 0.29 h and the Vz [2, 10] was 194.3 ± 72.28 L. The t1/2 [2, 10] was 5.06 ± 1.58 h, the “Plasma concentration remaining, fraction of Cmax” value ([3]; at 4 h post-infusion) was 1/20 and the AUCINF [3] was 14,995 ± 2,494 h*µg·L^-1. For the same compound, the AUClast [3] was 14,984 ± 2,497 h*µg·L^-1, the Cl [3] was 24.47 ± 3.75 L/h and the Cmax [3] was 861.7 ± 155.1 ng/mL. For the same compound, the Tmax [3] was 14.00 ± 7.66 h, the Vz [3] was 260.2 ± 144.4 L and the t1/2 [3] was 7.05 ± 3.74 h. For the same compound, the AUCINF ([3]; listed as pyragrel) was 14,994.57 ± 2,493.9 h*µg·L^-1, the AUClast ([3]; listed as pyragrel) was 14,984.40 ± 2,496.64 h*µg·L^-1 and the Cmax ([3]; listed as pyragrel) was 861.67 ± 155.05 ng/mL. For the same compound, the “Urinary excretion, share of the total drug amount” value ([4]; Part IV, three dose groups, pyragrel plus metabolites) was “more than 70%”, the “Total cumulative urine excreted amounts over 24 h” value [4, 11] was 44.80 mg and the “Accumulative urinary excretion rate” value [4, 11] was 74.67%. For the same compound, the “Total cumulative urine excreted amounts over 24 h” value ([4]; single 3 h infusion of pyragrel 120 mg) was 85.07 mg, the “Total cumulative urine excreted amounts over 24 h” value [4, 12] was 175.83 mg and the “Accumulative urinary excretion rate” value [4, 12] was 73.26%. For the same compound, the “Cumulative urinary drug recovery (normalized to pyragrel) within 24 h” value ([4]; single dose of pyragrel 60 mg) was 0.94 ± 0.30%, the “Cumulative urinary drug recovery (normalized to pyragrel) within 24 h” value ([4]; single dose of pyragrel 120 mg) was 0.67 ± 0.14% and the “Cumulative urinary drug recovery (normalized to pyragrel) within 24 h” value ([4]; single dose of pyragrel 240 mg) was 0.79 ± 0.28%.
